The target of this test is 6-phosphofructo-2-kinase/fructose-2,6-bisphosphatase 3 (PFKFB3) (Homo sapiens, UniProt Q16875). Description: ADP-Glo kinase assay with purified recombinant human PFKFB3; partial inhibition, only by the Ca2+-free form; counter assay done. It counts as biochemical.
Sequence of 6-phosphofructo-2-kinase/fructose-2,6-bisphosphatase 3 (PFKFB3) (Q16875 whole entry): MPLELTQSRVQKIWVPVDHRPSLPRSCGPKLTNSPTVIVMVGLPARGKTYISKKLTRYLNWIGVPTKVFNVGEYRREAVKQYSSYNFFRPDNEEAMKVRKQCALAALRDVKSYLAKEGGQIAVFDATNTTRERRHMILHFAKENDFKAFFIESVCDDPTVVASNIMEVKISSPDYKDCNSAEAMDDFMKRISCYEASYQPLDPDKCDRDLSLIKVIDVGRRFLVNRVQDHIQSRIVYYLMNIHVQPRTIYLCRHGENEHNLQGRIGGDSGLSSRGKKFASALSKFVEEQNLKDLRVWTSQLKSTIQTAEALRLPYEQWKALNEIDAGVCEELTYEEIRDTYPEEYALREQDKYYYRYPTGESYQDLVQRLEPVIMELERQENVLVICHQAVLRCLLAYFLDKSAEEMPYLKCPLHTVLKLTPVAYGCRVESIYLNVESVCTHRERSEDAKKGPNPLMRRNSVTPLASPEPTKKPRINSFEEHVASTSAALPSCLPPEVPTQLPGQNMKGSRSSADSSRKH

Take `O=C(O)CN(CC(=O)O)c1ccccc1OCCOc1ccccc1N(CC(=O)O)CC(=O)O` [BAPTA, 1,2-Bis-(o-Aminophenoxy)-ethane-N,N,N’,N’-tetraacetic acid]: the IC50 (in general, the midpoint of a concentration-inhibition curve) was determined as 110 µM.

The values are drawn from article PMC10491774 (Cell Death & Disease, 2023).
